Reference: ChEMBL document CHEMBL1148695, “Synthesis and biological activity of nociceptin/orphanin FQ analogues substituted in position 7 or 11 with Calpha,alpha-dialkylated amino acids” (Bioorg Med Chem, 2007)
Activity calls are given as the source filed them. The calls are words filed in the database; no cut-off is given here. *1 amine or outer side, *2 acyl side, *3 side chain or, on linkers, in order; H or OH if unused. Where a SMILES comes first, the peptide text is derived from it. [ ]: non-standard residue; d: D form. X1 = N[C@@H](Cc1ccccc1)CN(CC(=O)[*:2])[*:1]; Phe(4-F) = N[C@@H](Cc1ccc(F)cc1)C(=O)O; Aib = CC(C)(N)C(=O)O

What was measured:
[1] = biological target: Nociceptin receptor (Mus musculus) (UniProt P35377); assay: (§1) Agonist activity at NOP receptor in Swiss mouse vas deferens by [35S]GTP-gamma-S binding assay; format: functional, tissue-based
[2] = biological target: T1, Nociceptin receptor (Mus musculus, UniProt P35377); assay: as §1; format: functional, tissue-based
[3] = biological target: T2, Nociceptin receptor (Cavia porcellus, UniProt P47748); assay: (§2) Agonist activity at NOP receptor in Albino guinea pig ileum assessed as effect on electrically stimulated contractions; format: functional, tissue-based
[4] = biological target: Nociceptin receptor (Cavia porcellus) (UniProt P47748); assay: as §2; format: functional, tissue-based
[5] = biological target: T3, Nociceptin receptor (Rattus norvegicus, UniProt P35370); assay: Agonist activity at NOP receptor in Sprague-Dawley rat vas deferens assessed as effect on electrically stimulated contractions; format: functional, tissue-based
[6] = biological target: T2, Nociceptin receptor; assay: Antagonist activity at NOP receptor in Albino guinea pig ileum assessed as effect on electrically stimulated contractions; format: functional, tissue-based; conditions: read-out: pA2 (converted)
[7] = biological target: T3, Nociceptin receptor; assay: Antagonist activity at NOP receptor in Sprague-Dawley rat vas deferens assessed as effect on electrically stimulated contractions; format: functional, tissue-based; conditions: read-out: pA2 (converted)
[8] = biological target: T1, Nociceptin receptor; assay: Antagonist activity at NOP receptor in Swiss mouse vas deferens by [35S]GTP-gamma-S binding assay; format: functional, tissue-based; conditions: read-out: pA2 (converted)
[9] = biological target: Mu-type opioid receptor (Homo sapiens, UniProt P35372); assay: Displacement of [3H]diprenorphine from human recombinant mu opioid receptor expressed in CHO cells; format: cell-based
[10] = biological target: Delta-type opioid receptor (Homo sapiens, UniProt P41143); assay: Displacement of [3H]diprenorphine from human recombinant delta opioid receptor expressed in CHO cells; format: cell-based
[11] = biological target: Nociceptin receptor (Mus musculus) (UniProt P35377); assay: (§3) Agonist activity at NOP receptor in Swiss mouse vas deferens assessed as effect on electrically stimulated contractions; format: functional, tissue-based
[12] = biological target: T1, Nociceptin receptor; assay: as §3; format: functional, tissue-based

Sequence of Nociceptin receptor (Cavia porcellus) (P47748 whole entry): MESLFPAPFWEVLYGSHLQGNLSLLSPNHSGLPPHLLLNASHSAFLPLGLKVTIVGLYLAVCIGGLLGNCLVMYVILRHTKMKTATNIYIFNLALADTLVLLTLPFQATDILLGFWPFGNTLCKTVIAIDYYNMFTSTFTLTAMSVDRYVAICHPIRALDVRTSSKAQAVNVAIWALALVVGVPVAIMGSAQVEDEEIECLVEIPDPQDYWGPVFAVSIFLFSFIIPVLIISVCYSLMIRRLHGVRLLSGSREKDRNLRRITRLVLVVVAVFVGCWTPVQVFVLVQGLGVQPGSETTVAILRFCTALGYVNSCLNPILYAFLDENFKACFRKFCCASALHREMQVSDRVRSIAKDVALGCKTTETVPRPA
T2 sequence (P47748 whole entry): as above
Sequence of Nociceptin receptor (Mus musculus) (P35377 whole entry): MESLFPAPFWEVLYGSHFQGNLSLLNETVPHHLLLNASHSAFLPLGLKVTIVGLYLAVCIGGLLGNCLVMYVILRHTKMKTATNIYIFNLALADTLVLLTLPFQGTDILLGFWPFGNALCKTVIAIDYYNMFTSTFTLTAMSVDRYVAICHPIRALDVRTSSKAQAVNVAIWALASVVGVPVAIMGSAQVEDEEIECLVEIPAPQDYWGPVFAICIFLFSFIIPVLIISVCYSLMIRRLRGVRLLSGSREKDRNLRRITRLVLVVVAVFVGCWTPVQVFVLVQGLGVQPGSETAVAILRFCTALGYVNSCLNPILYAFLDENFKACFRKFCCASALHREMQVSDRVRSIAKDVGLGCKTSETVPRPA
T1 sequence (P35377 whole entry): as above
T3 sequence (P35370 whole entry): as the sequence (P35377 whole entry) above, with F9Y, A335S counted along it
Sequence of Delta-type opioid receptor (P41143 whole entry): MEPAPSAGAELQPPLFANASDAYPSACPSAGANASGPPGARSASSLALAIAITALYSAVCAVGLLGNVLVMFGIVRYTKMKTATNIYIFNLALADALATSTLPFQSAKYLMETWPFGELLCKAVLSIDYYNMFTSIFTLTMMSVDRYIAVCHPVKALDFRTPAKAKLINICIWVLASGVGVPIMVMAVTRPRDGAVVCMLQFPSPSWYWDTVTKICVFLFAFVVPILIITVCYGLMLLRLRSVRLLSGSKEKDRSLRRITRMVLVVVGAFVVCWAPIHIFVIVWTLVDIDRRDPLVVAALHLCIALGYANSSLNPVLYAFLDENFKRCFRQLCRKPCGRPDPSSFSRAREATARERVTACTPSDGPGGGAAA
Sequence of Mu-type opioid receptor (P35372 whole entry): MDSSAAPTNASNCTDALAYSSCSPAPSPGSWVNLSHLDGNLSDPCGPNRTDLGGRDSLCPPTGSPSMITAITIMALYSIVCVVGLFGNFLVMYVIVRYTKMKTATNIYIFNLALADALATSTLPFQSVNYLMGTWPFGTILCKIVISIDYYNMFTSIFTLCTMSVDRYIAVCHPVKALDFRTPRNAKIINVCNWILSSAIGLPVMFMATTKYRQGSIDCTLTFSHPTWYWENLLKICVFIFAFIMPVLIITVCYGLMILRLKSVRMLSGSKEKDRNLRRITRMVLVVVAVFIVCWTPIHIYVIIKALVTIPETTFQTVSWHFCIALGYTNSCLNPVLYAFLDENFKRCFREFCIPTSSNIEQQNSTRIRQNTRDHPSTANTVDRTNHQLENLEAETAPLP

**Q.** `C[C@H](NC(=O)[C@H](CO)NC(=O)[C@H](CCCCN)NC(=O)[C@H](CCCNC(=N)N)NC(=O)C(C)(C)NC(=O)CNC(=O)[C@@H](NC(=O)[C@H](Cc1ccc(F)cc1)NC(=O)CNC(=O)CNC(=O)[C@@H](N)Cc1ccccc1)[C@@H](C)O)C(=O)N[C@@H](CCCNC(=N)N)C(=O)N[C@@H](CCCCN)C(=O)N[C@@H](CCCNC(=N)N)C(=O)N[C@@H](CCCCN)C(=O)N[C@@H](CC(N)=O)C(=O)N[C@@H](CCC(N)=O)C(N)=O` was tested. Which Emax [1] did it give?
**A.** 84%

**Q.** What about the EC50 [2] of the same compound?
**A.** 0.575 nM

**Q.** And the EC50 [3]?
**A.** 0.676 nM

**Q.** And the Emax [4]?
**A.** 32%

**Q.** And the EC50 [5]?
**A.** 4.57 nM

**Q.** `C[C@H](NC(=O)[C@H](CO)NC(=O)[C@H](CCCCN)NC(=O)[C@H](CCCNC(=N)N)NC(=O)C(C)(C)NC(=O)CNC(=O)[C@@H](NC(=O)[C@H](Cc1ccccc1)NC(=O)CNC(=O)CNC(=O)[C@@H](N)Cc1ccccc1)[C@@H](C)O)C(=O)N[C@@H](CCCNC(=N)N)C(=O)N[C@@H](CCCCN)C(=O)N[C@@H](CCCNC(=N)N)C(=O)N[C@@H](CCCCN)C(=O)N[C@@H](CC(N)=O)C(=O)N[C@@H](CCC(N)=O)C(N)=O` was tested. Which Activity [1] did it give?
**A.** inactive

**Q.** What about the Activity [4] of the same compound?
**A.** inactive

**Q.** What does the source list for `C[C@H](NC(=O)[C@H](CO)NC(=O)[C@H](CCCCN)NC(=O)[C@H](CCCNC(=N)N)NC(=O)C(C)(C)NC(=O)CNC(=O)[C@@H](NC(=O)[C@H](Cc1ccc(F)cc1)NC(=O)CNC(=O)CNC[C@@H](N)Cc1ccccc1)[C@@H](C)O)C(=O)N[C@@H](CCCNC(=N)N)C(=O)N[C@@H](CCCCN)C(=O)N[C@@H](CCCNC(=N)N)C(=O)N[C@@H](CCCCN)C(=O)N[C@@H](CC(N)=O)C(=O)N[C@@H](CCC(N)=O)C(N)=O` (H-[X1]G[Phe(4-F)]TG[Aib]RKSARKRKNQ-NH2)?
**A.** Kb [6]: 0.316 nM; Kb [7]: 0.603 nM; Kb [8]: 0.794 nM

**Q.** What does the source list for `CC(C)C[C@H](NC(=O)[C@H](CCCCN)NC(=O)[C@H](CCCNC(=N)N)NC(=O)[C@H](C)NC(=O)[C@H](CO)NC(=O)[C@H](CCCCN)NC(=O)[C@H](CCCNC(=N)N)NC(=O)[C@H](C)NC(=O)CNC(=O)[C@@H](NC(=O)[C@H](Cc1ccccc1)NC(=O)CNC(=O)CNC(=O)[C@@H](N)Cc1ccccc1)[C@@H](C)O)C(=O)N[C@@H](C)C(=O)N[C@@H](CC(N)=O)C(=O)N[C@@H](CCC(N)=O)C(=O)O`?
**A.** Emax [1]: 87%; Emax [4]: 45%

**Q.** Which results are given for `C[C@H](NC(=O)[C@H](CO)NC(=O)[C@H](CCCCN)NC(=O)[C@H](CCCNC(=N)N)NC(=O)C(C)(C)NC(=O)CNC(=O)[C@@H](NC(=O)[C@H](Cc1ccccc1)NC(=O)CNC(=O)CNC(=O)CNCc1ccccc1)[C@@H](C)O)C(=O)N[C@@H](CCCNC(=N)N)C(=O)N[C@@H](CCCCN)C(=O)N[C@@H](CCCNC(=N)N)C(=O)N[C@@H](CCCCN)C(=O)N[C@@H](CC(N)=O)C(=O)N[C@@H](CCC(N)=O)C(N)=O`?
**A.** Ki [9]: > 10000 nM; Kb [6]: 46.8 nM; Kb [7]: 87.1 nM; Kb [8]: 34.7 nM; Ki [10]: > 10000 nM

**Q.** `CC(C)C[C@H](NC(=O)[C@H](CCCCN)NC(=O)[C@H](CCCNC(=N)N)NC(=O)[C@H](C)NC(=O)[C@H](CO)NC(=O)[C@H](CCCCN)NC(=O)[C@H](CCCNC(=N)N)NC(=O)C1(NC(=O)CNC(=O)[C@@H](NC(=O)[C@H](Cc2ccccc2)NC(=O)CNC(=O)CNC(=O)[C@@H](N)Cc2ccccc2)[C@@H](C)O)CC1)C(=O)N[C@@H](C)C(=O)N[C@@H](CC(N)=O)C(=O)N[C@@H](CCC(N)=O)C(N)=O` was tested. Which Emax [11] did it give?
**A.** 7.08%

**Q.** What about the EC50 [12] of the same compound?
**A.** 83.2 nM

**Q.** Which results are given for `CC(C)C[C@H](NC(=O)[C@H](CCCCN)NC(=O)[C@H](CCCN=C(N)N)NC(=O)[C@H](C)NC(=O)[C@H](CO)NC(=O)[C@H](CCCCN)NC(=O)[C@H](CCCN=C(N)N)NC(=O)[C@H](C)NC(=O)CNC(=O)[C@@H](NC(=O)[C@H](Cc1ccccc1)NC(=O)CNC(=O)CNC(=O)[C@@H](N)Cc1ccccc1)[C@@H](C)O)C(=O)N[C@@H](C)C(=O)N[C@@H](CC(N)=O)C(=O)N[C@@H](CCC(N)=O)C(=O)O` [NOCICEPTIN]?
**A.** EC50 [2]: 35.5 nM; EC50 [3]: 8.91 nM

**Q.** Which results are given for `CCCC(CCC)(NC(=O)CNC(=O)[C@@H](NC(=O)[C@H](Cc1ccccc1)NC(=O)CNC(=O)CNC(=O)[C@@H](N)Cc1ccccc1)[C@@H](C)O)C(=O)N[C@@H](CCCNC(=N)N)C(=O)N[C@@H](CCCCN)C(=O)N[C@@H](CO)C(=O)N[C@@H](C)C(=O)N[C@@H](CCCNC(=N)N)C(=O)N[C@@H](CCCCN)C(=O)N[C@@H](CC(C)C)C(=O)N[C@@H](C)C(=O)N[C@@H](CC(N)=O)C(=O)N[C@@H](CCC(N)=O)C(N)=O`?
**A.** Emax [11]: 91%; EC50 [12]: 12.6 nM

**Q.** Which Emax [11] does the source give for `CC(C)C[C@H](NC(=O)[C@H](CCCCN)NC(=O)[C@H](CCCNC(=N)N)NC(=O)[C@H](C)NC(=O)[C@H](CO)NC(=O)[C@H](CCCCN)NC(=O)[C@H](CCCNC(=N)N)NC(=O)C1(NC(=O)CNC(=O)[C@@H](NC(=O)[C@H](Cc2ccccc2)NC(=O)CNC(=O)CNC(=O)[C@@H](N)Cc2ccccc2)[C@@H](C)O)CCCCC1)C(=O)N[C@@H](C)C(=O)N[C@@H](CC(N)=O)C(=O)N[C@@H](CCC(N)=O)C(N)=O` here?
**A.** 87%

**Q.** And the EC50 [12]?
**A.** 63.1 nM
